# Experimental data from patent publication US10328093B2, “Anthracycline formulations” (CYTRX CORPORATION, priority 2012, dated 2019).
# How the values were obtained:
# [1] = Stability of DOXO-EMCH in DI water with manual pH adjustment (RP-HPLC); format: physicochemical; settings: for DOXO-EMCH / Doxorubicin: ~2.0 mg/mL in DI Water, manual pH adjustment to pH ~6.1 at 30 minute intervals
# Protocol: (§1) To analyze DOXO-EMCH's behavior in solution, a reversed-phase (RP) HPLC method for quantitation of DOXO-EMCH and various impurities and degradation products was utilized. Samples (1.0 μL injection volume) were assayed on an HPLC system fitted with a Phenomenex Gemini C18 column 100×2.0 mm, 3 μm at a flow rate of 0.3 mL/min. The mobile phase used was an acetate/acetonitrile gradient. The degradation product EMCH could not be detected using the above HPLC method, and was therefore determined using a liquid chromatography-mass spectrometry (LC-MS) method.
# An additional study was performed to obtain data on the stability of DOXO-EMCH dissolved in DI water with manual pH adjustment. The initial pH of the DOXO-EMCH solution (˜2.0 mg/mL) dissolved in DI Water was 5.4. At 30 minute intervals, the pH of the DOXO-EMCH solution was checked and adjusted to pH ˜6.1 by the dropwise addition of a 0.1 N NaOH solution.
# [2] = IV bag solution stability study of DOXO-EMCH API (0.9% NaCl, D5W, LR); format: physicochemical; settings: for solubility: ~2 mg/mL
# Protocol: as §1
# To obtain baseline data on the stability of DOXO-EMCH at the point of use, a study was designed to determine degradation of DOXO-EMCH when combined with candidate intravenous (IV) bag solutions. IV bag solutions including Dextrose 5% in Water (D5W), Lactated Ringers (LR), and Sodium Chloride Solution 0.9% (Normal Saline; NS) were used. 100 mg of DOXO-EMCH active pharmaceutical ingredient (API) were dissolved in 50 mL of the IV bag solution for a concentration of ˜2 mg/mL DOXO-EMCH API. The IV bag solutions containing API were then aliquoted in glass vials. The vials were stored at 25° C. in a stability chamber for the length of the experiment. Prior to the beginning of the IV bag stability study, all IV bag solutions were tested for pH and the presence of any peaks interfering with DOXO-EMCH or any degradation peaks of interest. Samples were pulled at 0 hr, 2 hr, 4 hr, and 6 hr time intervals and tested for pH and in duplicate by HPLC.
# Tables 8-10 below list the results for the IV bag study using 0.9% NaCl, D5W, and Lactated Ringer's Solution. In summary, the 0.9% NaCl and Lactated Ringer's solutions met the goal of less than 3% doxorubicin over 3-5 hours. […] The sample was opaque and precipitated material visibly settled over a 2-hour period. […] The samples were mixed well before dilution of each sample for HPLC assay, but non-homogeneity of these samples is reflected in the DOXO-EMCH recovery values for those two IV bag solutions. […] The pH for D5W was the lowest of all the IV bag solutions tested.
# [3] = ~2 mg/mL API in 0.9% NaCl IV solution, 25° C., 0 hr
# [4] = ~2 mg/mL API in 0.9% NaCl IV solution, 25° C., 2 hr
# [5] = ~2 mg/mL API in 0.9% NaCl IV solution, 25° C., 4 hr
# [6] = ~2 mg/mL API in 0.9% NaCl IV solution, 25° C., 6 hr
# [7] = ~2 mg/mL API in D5W IV solution, 25° C., 0 hr
# [8] = ~2 mg/mL API in D5W IV solution, 25° C., 2 hr
# [9] = ~2 mg/mL API in D5W IV solution, 25° C., 4 hr
# [10] = ~2 mg/mL API in D5W IV solution, 25° C., 6 hr
# [11] = ~2 mg/mL API in LR IV solution, 25° C., 0 hr
# [12] = ~2 mg/mL API in LR IV solution, 25° C., 2 hr
# [13] = ~2 mg/mL API in LR IV solution, 25° C., 4 hr
# [14] = ~2 mg/mL API in LR IV solution, 25° C., 6 hr
compound,measurement,setting,value
COc1cccc2c1C(=O)c1c(O)c3c(c(O)c1C2=O)C[C@@](O)(/C(CO)=N/NC(=O)CCCCCN1C(=O)C=CC1=O)C[C@@H]3O[C@H]1C[C@H](N)[C@H](O)[C@H](C)O1.Cl [DOXO-EMCH],initial pH of the DOXO-EMCH solution,"[1]; ~2.0 mg/mL dissolved in DI Water, before adjustment",5.4
same,DOXO-EMCH,[1]; 0 hr,98.8 wt %
same,Doxorubicin,[1]; 0 hr,0.5 wt %
same,DOXO-EMCH,[1]; 2 hr,91.8 wt %
same,Doxorubicin,[1]; 2 hr,2.4 wt %
same,DOXO-EMCH,[1]; 4 hr,85.6 wt %
same,Doxorubicin,[1]; 4 hr,3.6 wt %
same,DOXO-EMCH,[1]; 6 hr,80.6 wt %
same,Doxorubicin,[1]; 6 hr,4.3 wt %
same,doxorubicin over 3-5 hours (goal),"[2]; 0.9% NaCl IV solution, 25° C.",less than 3%
same,degradation over a 6 hour period,"[2]; D5W solution, 25° C.",significant degradation of DOXO-EMCH and formation of doxorubicin
same,doxorubicin over 3-5 hours (goal),"[2]; Lactated Ringer's solution, 25° C.",less than 3%
same,solubility,[2]; in 0.9% NaCl,not completely soluble
same,solubility,[2]; in D5W,completely soluble
same,solubility,[2]; in Lactated Ringer's,not completely soluble
same,Doxorubicin,[2]; [3],0.3 wt %
same,pH,[2]; [3],6.5
same,Doxorubicin,[2]; [4],0.9 wt %
same,pH,[2]; [4],6.0
same,Doxorubicin,[2]; [5],2.1 wt %
same,pH,[2]; [5],5.6
same,Doxorubicin,[2]; [6],2.6 wt %
same,pH,[2]; [6],5.7
same,Doxorubicin,[2]; [7],1.6 wt %
same,pH,[2]; [7],5.5
same,Doxorubicin,[2]; [8],5.8 wt %
same,pH,[2]; [8],5.0
same,Doxorubicin,[2]; [9],11.2 wt %
same,pH,[2]; [9],4.9
same,Doxorubicin,[2]; [10],16.8 wt %
same,pH,[2]; [10],4.8
same,Doxorubicin,[2]; [11],0.2 wt %
same,pH,[2]; [11],6.3
same,Doxorubicin,[2]; [12],0.5 wt %
same,pH,[2]; [12],6.1
same,Doxorubicin,[2]; [13],0.9 wt %
same,pH,[2]; [13],6.0
same,Doxorubicin,[2]; [14],1.6 wt %
same,pH,[2]; [14],5.9
